Reference: publication PMC9225715, “Development of PD3 and PD3-B for PDEδ inhibition to modulate KRAS activity” (Journal of Enzyme Inhibition and Medicinal Chemistry, 2022)

Molecular target: T1, PDEδ (Homo sapiens, UniProt O43924)
T1 construct: made in house; host or cells: E. coli BL21(DE3)
Test: Affinity pull-down experiment with bacterial lysate overexpressing PDEδ
Assay type: binding
Conditions: 100 µM PD3-B on NeutrAvidin resin, bacterial lysate 150 µg, DMSO control
Description: We subsequently investigated whether PD3-B (5) specifically identifies PDEδ in the complex proteome of bacterial lysate using an affinity pull-down experiment (Figure 5). 100 µM PD3-B (5) was initially incubated with NeutrAvidin resin before incubation with bacterial lysate (150 µg) overexpressing PDEδ. For elution of the bound proteins, an elution buffer (2% SDS in PBS) was added to the resin and gently eluted at room temperature due to the noncovalent interaction between PD3-B (5) and the target protein PDEδ. The eluted samples were subjected to SDS–PAGE (18% polyacrylamide gel), and then the gels were stained with colloidal Coomassie brilliant blue solution to visualise the bound proteins. DMSO was used as a negative control. […] In addition, the intensity of the PDEδ band increased depending on the concentration of PD3-B (5) (Figure 5(B)).
Figure 5. Affinity pull-down assay of bacterial lysate (PDEδ overexpressed) with PD3-B. NeutrAvidin resin was incubated with PD3-B (100 μM) followed by bacterial lysate (150 μg) in PBS buffer. Then, bound proteins were eluted by adding elution buffer (2% SDS in PBS) at room temperature. The eluted samples were subjected to SDS–PAGE (18% polyacrylamide gel). The gels were stained with colloidal Coomassie brilliant blue solution. (A) Colloidal CBB staining of SDS–PAGE gel. Lys: bacterial lysate, FT: flow through in step 1. […]

T1 sequence (O43924 whole entry): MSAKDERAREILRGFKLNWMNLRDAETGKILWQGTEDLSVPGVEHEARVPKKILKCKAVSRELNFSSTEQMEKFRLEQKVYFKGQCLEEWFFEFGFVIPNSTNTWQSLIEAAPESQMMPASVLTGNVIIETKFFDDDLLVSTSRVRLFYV

Cc1ccc(-c2nc3ccccc3c3c(-c4cn(CCOCCOCCOCCNC(=O)CCCC[C@H]5SC[C@@H]6NC(=O)N[C@@H]65)nn4)c4ccccn4c23)cc1 [PD3-B, 5-((3aS,4R,6aR)-2-oxohexahydro-1H-thieno[3,4-d]imidazol-4-yl)-N-(2–(2–(2-(2-(4–(6-(p-tolyl)indolizino[3,2-c]quinolin-12-yl)-1H-1,2,3-triazol-1-yl)ethoxy)ethoxy)ethoxy)ethyl)pentanamide]
Pull down of PDEδ: PDEδ (20 kDa) was only detected in PD3-B (5)
